Experimental data from patent US20040097566A1, “2-Substituted thiazolidinone and oxazolidinone derivatives for the inhibition of phosphatases and the treatment of cancer” (priority 2001, published 2004).

Row | melting point | Compound
1 | 262 to 264 °C | C[C@H]1CN(C2=NC(=O)/C(=C/c3cccc(-c4cc(F)c(O)c(C56CC7CC(CC(C7)C5)C6)c4)c3)S2)C[C@H](C)O1 (relative stereo) [Compound 50, 5-[3-(3-Adamantan-1-yl-4-hydroxy-5-fluoro-phenyl)benzylidene]-2-(trans-2,6-dimethylmorpholin-4-yl)-thiazol-4-one]
2 | 325 to 328 °C | O=C1N=C(N2CCOCC2)S/C1=C\c1cccc(-c2ccc(O)c(C34CC5CC(CC(C5)C3)C4)c2)c1 [Compound 2, 5-[3-(3-Adamantan-1-yl-4-hydroxy-phenyl)benzylidene]-2-morpholin-4-yl-thiazol-4-one]
3 | 325 to 328 °C | O=C1N=C(N2CCCCC2)S/C1=C\c1ccc(-c2ccc(O)c(C34CC5CC(CC(C5)C3)C4)c2)cc1 [Compound 4, 5-[4-(3-Adamantan-1-yl-4-hydroxy-phenyl)benzylidene]-2-piperidin-1yl-thiazol-4-one]
4 | 291 to 294 °C | CN1CCN(C2=NC(=O)/C(=C/c3cccc(-c4ccc(O)c(C56CC7CC(CC(C7)C5)C6)c4)c3)S2)CC1 [Compound 8, 5-[3-(3-Adamantan-1-yl-4-hydroxy-phenyl)benzylidene]-2-(4-methyl-piperazin-1-yl)-thiazol-4-one]
5 | 226 to 228 °C | CN1CCN(C2=NC(=O)/C(=C/c3cccc(-c4cc(F)c(O)c(C56CC7CC(CC(C7)C5)C6)c4)c3)S2)CC1 [Compound 9, 5-[3-(3-Adamantan-1-yl-4-hydroxy-5-fluoro-phenyl)benzylidene]-2-(4-methyl-piperazin-1-yl)-thiazol-4-one]
6 | 275 to 277 °C | CCN(CC)C1=NC(=O)/C(=C/c2cccc(-c3ccc(O)c(C45CC6CC(CC(C6)C4)C5)c3)c2)S1 [Compound 10, 5-[3-(3-Adamantan-1-yl-4-hydroxy-phenyl)benzylidene]-2-diethylamino-thiazol-4-one]
7 | 309 to 311 °C | O=C1N=C(N2CCCC2)S/C1=C\c1cccc(-c2cc(F)c(O)c(C34CC5CC(CC(C5)C3)C4)c2)c1 [Compound 13, 5-[3-(3-Adamantan-1-yl-4-hydroxy-5-fluoro-phenyl)benzylidene]-2-pyrrolidine-1-yl-thiazol-4-one-thiazol-4-one]
8 | 321 to 324 °C | O=C1N=C(N2CCCCCC2)S/C1=C\c1cccc(-c2ccc(O)c(C34CC5CC(CC(C5)C3)C4)c2)c1 [Compound 14, 5-[3-(3-Adamantan-1-yl-4-hydroxy-phenyl)benzylidene]-2-azepan-1-yl-thiazol-4-one]
9 | 284 to 286 °C | O=C1N=C(N2CCCCCCC2)S/C1=C\c1cccc(-c2ccc(O)c(C34CC5CC(CC(C5)C3)C4)c2)c1 [Compound 16, 5-[3-(3-Adamantan-1-yl-4-hydroxy-phenyl)benzylidene]-2-azocan-1-yl-thiazol-4-one]
10 | 291 to 293 °C | O=C1N=C(N2CCN(c3cccc(C(F)(F)F)c3)CC2)S/C1=C\c1cccc(-c2cc(F)c(O)c(C34CC5CC(CC(C5)C3)C4)c2)c1 [Compound 19, 5-[3-(3-Adamantan-1-yl-4-hydroxy-5-fluoro-phenyl)benzylidene]-2-[4-(3-trifluoromethyl-phenyl)-piperazon-1-yl]-thiazol-4-one]
11 | 242 to 246 °C | CN(C)CCN(Cc1ccccc1)C1=NC(=O)/C(=C/c2cccc(-c3cc(F)c(O)c(C45CC6CC(CC(C6)C4)C5)c3)c2)S1 [Compound 20, 5-[3-(3-Adamantan-1-yl-4-hydroxy-5-fluoro-phenyl)benzylidene]-2[benzyl-(2-dimethylamino-ethyl)-amino]-thiazol-4-one]
12 | 180 to 193 °C | O=C1N=C(NCCN2CCOCC2)S/C1=C\c1cccc(-c2cc(F)c(O)c(C34CC5CC(CC(C5)C3)C4)c2)c1 [Compound 24, 5-[3-(3-Adamantan-1-yl-4-hydroxy-5-fluoro-phenyl)benzylidene]-2-(2-morpholino-1-yl-ethylamino)-thiazol-4-one]
13 | 135 to 138 °C | O=C1N=C(N2CCCCC2)S/C1=C\c1cccc(-c2ccc(O)c(C(=O)c3ccccc3)c2)c1 [Compound 26, 5-[3-(3-Benzoyl-4-hydroxy-phenyl)benzylidene]-2-piperidin-1-yl-thiazol-4-one]
14 | 230 to 233 °C | O=C1N=C(N2CCNCC2)S/C1=C\c1cccc(-c2cc(F)c(O)c(C34CC5CC(CC(C5)C3)C4)c2)c1 [Compound 31, 5-[3-(3-Adamantan-1-yl-4-hydroxy-5-fluoro-phenyl)benzylidene]-2piperazin-1-yl-thiazol-4-one]
15 | 327 to 329 °C | Cc1cc(O)c(C23CC4CC(CC(C4)C2)C3)cc1-c1cccc(/C=C2\SC(N3CCOCC3)=NC2=O)c1 [Compound 33, 5-[3-(3-Adamantan-1-yl-4-hydroxy-6-methyl-phenyl)benzylidene]-2-morpholin-4-yl-thiazol-4-one]
16 | 283 to 285 °C | O=C1N=C(N2CCOCC2)S/C1=C\c1ccc(-c2ccnc(C34CC5CC(CC(C5)C3)C4)n2)cc1 [Compound 41, 5-[4-(2-Adamantan-1-yl-pyrimidin-4-yl)-benzylidene]-2-morpholin-4-yl-thiazol-4-one]

Row | melting point | Compound
17 | 270 to 271 °C | CSC1=NC(=O)/C(=C/c2cccc(-c3cc(F)c(O)c(C45CC6CC(CC(C6)C4)C5)c3)c2)S1 [Compound 51, 5-[3-(3-Adamantan-1-yl-4-hydroxy-5-fluorophenyl)benzylidene]-2-methylsulfanyl-thiazol-4-one]
18 | 238 to 240 °C | O=C1N=C(NO)S/C1=C\c1cccc(-c2cc(F)c(O)c(C34CC5CC(CC(C5)C3)C4)c2)c1 [Compound 52, 5-[3-(3-Adamantan-1-yl-4-hydroxy-5-fluorophenyl)benzylidene]-2-hydroxyamino-thiazol-4-one]
19 | 195 to 198 °C | O=C1N=C(N2CCC[C@H]2C(=O)O)S/C1=C\c1cccc(-c2cc(F)c(O)c(C34CC5CC(CC(C5)C3)C4)c2)c1 [Compound 53, 5-[3-(3-Adamantan-1-yl-4-hydroxy-5-fluoro-phenyl)benzylidene]-2-(2-(S)-carboxy-1-yl)-thiazol-4-one]
20 | 312 to 315 °C | O=C1N=C(N2CCCC2)S/C1=C\c1ccc(-c2cc(F)c(O)c(C34CC5CC(CC(C5)C3)C4)c2)s1 [Compound 59, 5-[5-(3-Adamantan-1-yl-4-hydroxy-5-fluoro-phenyl)-thiophene-2-yl-methylene]-2-pyrrolidine-1-yl-thiazol-4-one]
21 | 294 to 298 °C | CN(C)c1ccc(/C=C2\SC(N3CCCC3)=NC2=O)cc1-c1cc(F)c(O)c(C23CC4CC(CC(C4)C2)C3)c1 [Compound 61, 5-[3-(3-Adamantan-1-yl-4-hydroxy-5-fluoro-phenyl)-4-dimethylamino-benzylidene]-2-pyrrolidin-1-yl-thiazol-4-one]
22 | 238 °C | O=C1N=C(N2CCOCC2)S/C1=C\c1ccc(OC(F)(F)F)c(-c2cc(F)c(O)c(C34CC5CC(CC(C5)C3)C4)c2)c1 [Compound 62, 5-[3-(3-Adamantan-1-yl-4-hydroxy-5-fluoro-phenyl)-4-trifluoromethoxy-benzylidene]-2-morpholin-4-yl-thiazol-4-one]
23 | 233 to 235 °C | O=C1N=C(N2CCOCC2)S/C1=C\c1cccc(-c2ccc(O)c(F)c2)c1 [Compound 64, 5-[3-(3-Fluoro-4-hydroxy-phenyl)-benzylidene]-2-morpholin-4-yl-thiazol-4-one]
24 | 293 to 296 °C | O=C1N=C(NN2CCCC2)S/C1=C\c1cccc(-c2cc(F)c(O)c(C34CC5CC(CC(C5)C3)C4)c2)c1 [Compound 69, 5-[3-(3-Adamantan-1-yl-4-hydroxy-5-fluoro-phenyl)benzylidene]-2-(pyrrolidin-1-ylamino)-thiazol-4-one]
25 | 288 to 290 °C | N=C(N)NC1=NC(=O)/C(=C/c2cccc(-c3cc(F)c(O)c(C45CC6CC(CC(C6)C4)C5)c3)c2)S1 [Compound 70, 5-[3-(3-Adamantan-1-yl-4-hydroxy-5-fluorophenyl)benzylidene]-2-(N-guanidinyl)-thiazol-4-one]
26 | 286 to 288 °C | CONC1=NC(=O)/C(=C/c2cccc(-c3cc(F)c(O)c(C45CC6CC(CC(C6)C4)C5)c3)c2)S1 [Compound 71, 5-[3-(3-Adamantan-1-yl-4-hydroxy-5-fluorophenyl)benzylidene]-2-methoxyamino-thiazol-4-one]
27 | 234 to 236 °C | NC(=O)NNC1=NC(=O)/C(=C/c2cccc(-c3cc(F)c(O)c(C45CC6CC(CC(C6)C4)C5)c3)c2)S1 [Compound 72, 5-[3-(3-Adamantan-1-yl-4-hydroxy-5-fluorophenyl)benzylidene]-2-semicarbazid-1-yl-thiazol-4-one]
28 | 304 to 309 °C | O=C1N=C(NN2CCOCC2)S/C1=C\c1cccc(-c2cc(F)c(O)c(C34CC5CC(CC(C5)C3)C4)c2)c1 [Compound 73, 5-[3-(3-Adamantan-1-yl-4-hydroxy-5-fluorophenyl)benzylidene]-2-(morpholin-4-yl-amino)-thiazol-4-one]
29 | 303 to 308 °C | NNC1=NC(=O)/C(=C/c2cccc(-c3cc(F)c(O)c(C45CC6CC(CC(C6)C4)C5)c3)c2)S1 [Compound 74, 5-[3-(3-Adamantan-1-yl-4-hydroxy-5-fluorophenyl)benzylidene]-2-hydrazino-thiazol-4-one]
30 | 164 to 168 °C | O=C1N=C(N2CCC[C@@H]2C(=O)O)S/C1=C\c1cccc(-c2cc(F)c(O)c(C34CC5CC(CC(C5)C3)C4)c2)c1 [Compound 76, 5-[3-(3-Adamantan-1-yl-4-hydroxy-5-fluoro-phenyl)benzylidene]-2-(2-(R)-carboxy-1-yl)-thiazol-4-one]
31 | 230 to 233 °C | CC1(C)COc2ccc(-c3cncc(/C=C4\SC(N5CCOCC5)=NC4=O)c3)cc21 [Compound 82, 5-[5-(3,3-Dimethyl-2,3-dihydro-benzofuran-5-yl)-pyridin-3-ylmethylene]-2-morpholin-4-yl-thiazol-4-one]
32 | 355 to 360 °C | COc1ccc(-c2ccc(O)c(C34CC5CC(CC(C5)C3)C4)c2)cc1/C=C1\SC(N2CCOCC2)=NC1=O [Compound 86, 5-[3-(3-Adamantan-1-yl-4-hydroxy-phenyl)-6-methoxy-benzylidene]-2-morpholin-4-yl-thiazol-4-one]
